# In patent US20050072047A1, “Tobacco having reduced nicotine and nitrosamines” (priority 2002, published 2005):
# Like-named read-outs stand apart in the source and are kept apart here.
# Key:
# tobacco plants [1] = details: early flowering stage; Fung et al. 1973; cited from earlier work
# tobacco plants [2] = experiment: Nicotine and TSNA levels of field tobacco plants contacted with the compound, versus untreated plants; type: in vivo; details: compared to untreated tobacco plants
# Protocol: To reduce the level of nicotine and/or nitrosamine in a cultivated crop or field of tobacco, a concentrated solution of 2,4-D in water (e.g., a 10% solution) with the wetting agent “Agral 60” (e.g., a 0.0006% v/v miscible oil emulsion) is prepared. A control solution containing the wetting agent without 2,4-D is also prepared. These solutions are diluted to 0.1, 1, 10, or 100 ppm of 2,4-D in the final spray solution. Control and experimental fields of tobacco (e.g., Burley, Virginia Flue, and Oriental varieties in separate test plots cultivated by conventional techniques for the particular varieties) at various ages of maturity (some of which have been topped) are sprayed with parallel dilutions of the wetting agent alone. Plants are then sprayed with the above solutions to the dripping-off point. Plants are allowed to continue growing normally for 14 days. Plants are then harvested and sample leaves (from the same position on the plants of the same age) are quick-frozen using liquid nitrogen. Nicotine levels are measured on these sample leaves using standard techniques.
# A quick drying curing technique or a conventional curing technique particular to the variety being tested is employed to obtain cured leaves (non-green or yellow dried leaves). Conventional TSNA analysis is then performed on the cured leaves and stems and/or portions thereof (e.g., lamina and midrib of the leaf). By following this approach, the amount of 2,4-D to apply to a specific variety of tobacco, for a specific age of plant (topped or not topped) in the field to achieve a reduced nicotine and/or nitrosamine level is readily determined. In the following example, ethylene precursors, such as ethephon, are used to decrease jasmonate-induced nicotine and/or nitrosamine levels in tobacco.
# lipoxygenase [3] = details: potato; Kolomiets et al. 2001; cited from earlier work
# lipoxygenase [4] = details: soybean; Creelman 1992; cited from earlier work
# [5] = tested on: jasmonic acid levels in plants; details: Schweizer et al. 1997; cited from earlier work
Compound,harm to tobacco plants (tobacco plants [1]),level of TSNAs in treated tobacco plants (tobacco plants [2]),level of nicotine in treated tobacco plants (tobacco plants [2]),effect on lipoxygenase activity (lipoxygenase [3]),effect on lipoxygenase activity (lipoxygenase [4]),effect on jasmonic acid levels in plants [5]
"O=C(O)COc1ccc(Cl)cc1Cl [2,4-D, 2,4-Dichlorophenoxyacetic acid]",most harmful to tobacco plants during the early flowering stage,reduced levels,reduced levels,,,
COc1ccc2cc([C@H](C)C(=O)O)ccc2c1 [Naproxen],,,,inhibit lipoxygenase activity,inhibit lipoxygenase activity,
"O=C(O)c1ccccc1O [salicylic acid, 2-hydroxybenzoic acid]",,reduced amount,reduced amount,,,
Clc1ccc(N2N=N[C@@H]3[C@@H]4C[C@@H]([C@H]5N=N[C@@H]45)[C@@H]32)cc1 [tetcyclacis],,reduced amount,reduced amount,,,inhibit jasmonic acid levels
